In PubChem BioAssay AID2060897 (Molecular Pharmacology Branch, DTP, NCI, 2025):

Tested on: 966289-007-R4-J1-PDC complex spheroid viability
Test: Anticancer human tumor 966289-007-R4-J1-PDC patient-derived pancreatic adenocarcinoma cell line growth inhibition [RAS]
Settings: for IC50: curve of first compound; for viability, T/C: stronger effect = lower value; active = viability on the fitted dose curve at most 10% of control; inactive = the rest
Outline: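 Agents were tested in combination matrices in half-log decrements from a top concentration at or near clinical Cmax (10 microM if undetermined). Targets were multi-cell spheroids of tumour lines plus HUVEC and MSC stromal cells.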
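Note: spheroids exposed to agents for one week before readout.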
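Throughout, for viability, T/C: percent viability relative to DMSO vehicle control wells as 100%.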

Cc1nc(N2CCC3(CC2)COC(C)C3N)c(CO)nc1Sc1ccnc(N)c1Cl (centres undefined) + CCn1c(-c2cccnc2C(C)OC)c2c3cc(ccc31)N1CCOC(CC(NC(=O)C(C(C)C)N(C)C(=O)C3(F)CCN(C(=O)C#CC(C)(C)N(C)C)CC3)C(=O)N3CCCC(N3)C(=O)OCC(C)(C)C2)C1
> 10000 nM: IC50 (second compound 0.000949 µM) | IC50 (second compound 0.003 µM) | IC50 (second compound 0.00949 µM) | IC50 (second compound 0.03 µM) | IC50 (second compound 0.0949 µM) | IC50 (second compound 0.3 µM)
inactive: viability, T/C (second compound 0.000949 µM, first compound 0.0316 µM) 123% | viability, T/C (second compound 0.000949 µM, first compound 0.1 µM) 90.2% | viability, T/C (second compound 0.000949 µM, first compound 0.316 µM) 119% | viability, T/C (second compound 0.000949 µM, first compound 1 µM) 70.1% | viability, T/C (second compound 0.000949 µM, first compound 3.16 µM) 67.3% | viability, T/C (second compound 0.000949 µM, first compound 10 µM) 84.8% | viability, T/C (second compound 0.003 µM, first compound 0.0316 µM) 89.2% | viability, T/C (second compound 0.003 µM, first compound 0.1 µM) 89.6% | viability, T/C (second compound 0.003 µM, first compound 0.316 µM) 84.7% | viability, T/C (second compound 0.003 µM, first compound 1 µM) 80.3% | viability, T/C (second compound 0.003 µM, first compound 3.16 µM) 86.4% | viability, T/C (second compound 0.003 µM, first compound 10 µM) 88.9% | viability, T/C (second compound 0.00949 µM, first compound 0.0316 µM) 80.4% | viability, T/C (second compound 0.00949 µM, first compound 0.1 µM) 83.1% | viability, T/C (second compound 0.00949 µM, first compound 0.316 µM) 87% | viability, T/C (second compound 0.00949 µM, first compound 1 µM) 90.5% | viability, T/C (second compound 0.00949 µM, first compound 3.16 µM) 84% | viability, T/C (second compound 0.00949 µM, first compound 10 µM) 82.2% | viability, T/C (second compound 0.03 µM, first compound 0.0316 µM) 92.4% | viability, T/C (second compound 0.03 µM, first compound 0.1 µM) 84.7% | viability, T/C (second compound 0.03 µM, first compound 0.316 µM) 89.1% | viability, T/C (second compound 0.03 µM, first compound 1 µM) 82.6% | viability, T/C (second compound 0.03 µM, first compound 3.16 µM) 74.7% | viability, T/C (second compound 0.03 µM, first compound 10 µM) 97.3% | viability, T/C (second compound 0.0949 µM, first compound 0.0316 µM) 68.9% | viability, T/C (second compound 0.0949 µM, first compound 0.1 µM) 101% | viability, T/C (second compound 0.0949 µM, first compound 0.316 µM) 95.9% | viability, T/C (second compound 0.0949 µM, first compound 1 µM) 90.3% | viability, T/C (second compound 0.0949 µM, first compound 3.16 µM) 106% | viability, T/C (second compound 0.0949 µM, first compound 10 µM) 76.1% | viability, T/C (second compound 0.3 µM, first compound 0.0316 µM) 95.7% | viability, T/C (second compound 0.3 µM, first compound 0.1 µM) 89.2% | viability, T/C (second compound 0.3 µM, first compound 0.316 µM) 93.4% | viability, T/C (second compound 0.3 µM, first compound 1 µM) 144% | viability, T/C (second compound 0.3 µM, first compound 3.16 µM) 122% | viability, T/C (second compound 0.3 µM, first compound 10 µM) 114%

CCc1c2c(nc3ccc(O)cc13)-c1cc3c(c(=O)n1C2)COC(=O)[C@]3(O)CC + C#Cc1c(F)ccc2cc(O)cc(-c3ncc4c(N5CC6CCC(C5)N6)nc(OCC56CCCN5CC(F)C6)nc4c3F)c12
1.59 nM: IC50 (second compound 0.0316 µM)
1.5 nM: IC50 (second compound 0.1 µM)
1.43 nM: IC50 (second compound 0.316 µM)
inactive: viability, T/C (second compound 0.0316 µM, first compound 0.000949 µM) 88.6% | viability, T/C (second compound 0.1 µM, first compound 0.000949 µM) 81.8% | viability, T/C (second compound 0.316 µM, first compound 0.000949 µM) 76.5% | viability, T/C (second compound 1 µM, first compound 0.000949 µM) 77.1% | viability, T/C (second compound 3.16 µM, first compound 0.000949 µM) 82.2% | viability, T/C (second compound 10 µM, first compound 0.000949 µM) 75.1%
active: viability, T/C (second compound 0.0316 µM, first compound 0.003 µM) 2.5% | viability, T/C (second compound 0.0316 µM, first compound 0.00949 µM) 1.27% | viability, T/C (second compound 0.0316 µM, first compound 0.03 µM) 0.94% | viability, T/C (second compound 0.0316 µM, first compound 0.0949 µM) 1.06% | viability, T/C (second compound 0.0316 µM, first compound 0.3 µM) 1.14% | viability, T/C (second compound 0.1 µM, first compound 0.003 µM) 2.09% | viability, T/C (second compound 0.1 µM, first compound 0.00949 µM) 0.95% | viability, T/C (second compound 0.1 µM, first compound 0.03 µM) 1.18% | viability, T/C (second compound 0.1 µM, first compound 0.0949 µM) 0.87% | viability, T/C (second compound 0.1 µM, first compound 0.3 µM) 1.15% | viability, T/C (second compound 0.316 µM, first compound 0.003 µM) 2.19% | viability, T/C (second compound 0.316 µM, first compound 0.00949 µM) 1.22% | viability, T/C (second compound 0.316 µM, first compound 0.03 µM) 1.04% | viability, T/C (second compound 0.316 µM, first compound 0.0949 µM) 0.89% | viability, T/C (second compound 0.316 µM, first compound 0.3 µM) 1.23% | viability, T/C (second compound 1 µM, first compound 0.003 µM) 1.99% | viability, T/C (second compound 1 µM, first compound 0.00949 µM) 1.31% | viability, T/C (second compound 1 µM, first compound 0.03 µM) 1.22% | viability, T/C (second compound 1 µM, first compound 0.0949 µM) 1.16% | viability, T/C (second compound 1 µM, first compound 0.3 µM) 1.16% | viability, T/C (second compound 3.16 µM, first compound 0.003 µM) 2.82% | viability, T/C (second compound 3.16 µM, first compound 0.00949 µM) 1.66% | viability, T/C (second compound 3.16 µM, first compound 0.03 µM) 1.34% | viability, T/C (second compound 3.16 µM, first compound 0.0949 µM) 1.54% | viability, T/C (second compound 3.16 µM, first compound 0.3 µM) 1.55% | viability, T/C (second compound 10 µM, first compound 0.003 µM) 1.37% | viability, T/C (second compound 10 µM, first compound 0.00949 µM) 1.04% | viability, T/C (second compound 10 µM, first compound 0.03 µM) 0.91% | viability, T/C (second compound 10 µM, first compound 0.0949 µM) 0.84% | viability, T/C (second compound 10 µM, first compound 0.3 µM) 0.55%
1.4 nM: IC50 (second compound 10 µM)
1.51 nM: IC50 (second compound 3.16 µM)
1.44 nM: IC50 (second compound 1 µM)
